# Read-outs that look alike come from different tables or passages of the source.
# System: iCell cardiomyocytes (human iPSC-derived cardiomyocytes)
# Test: Intracellular Ca2+ flux / beating parameters in iCell cardiomyocytes (FLIPR tetra), 90 min or 24 h
# Format: cell-based
# Details: Homo sapiens, Cardiomyocyte, 0.00 µM = 100.00; for activity at 0.1 µM: 0.10 µM
# Method: Details on cardiomyocyte cell culture are described in detail elsewhere ([Grimm et al. 2015b]; [Sirenko et al. 2013a]). Briefly, tissue-culture treated 384 well plates were gelatinized with 25μL per well of 0.1% (w/v) gelatin in water for 2 h at 37°C and 5% CO2 . Individual vials of cells were thawed for 4 min in a water bath maintained at 37°C. Thawed cells were resuspended in 10ml plating medium containing 1:500 (vol/vol) penicillin/streptomycin solution at room temperature (RT). Live cell counts for each cell suspension were determined by trypan blue staining and cells were further diluted to provide final cell densities of 2×10^5 viable cells/ml. Thus, 5,000 cells suspended in 25μL media were transferred per well after the gelatin solution had been discarded. Cell culture plates were rested for 30 min at RT before they were incubated for 48 h at 37°C and 5% CO2 . Then, a media exchange with 30μL of fresh maintenance medium containing 1:500 (vol/vol) penicillin/streptomycin solution was performed, and cell media were subsequently changed every 48 h for 12 d. On the experiment day, the medium was completely exchanged with either 25μL (for Ca^2+ flux assay) or 40μL (for imaging) of fresh medium.
# Responses of iCell®-cardiomyocytes to drugs and chemicals were evaluated using intracellular Ca^2+ flux measurements ([Grimm et al. 2015b]; [Sirenko et al. 2013b]). For experiments, 20 mM stock solutions of PCBs and PCB metabolites were prepared in DMSO ( 200× ). Chemical working solutions ( 5× ) were prepared using cardiomyocyte maintenance medium and contained 2.5% (vol/vol) DMSO. These chemical master plates were prepared to include all chemicals in concentration–response (0.05, 0.5, 5, 50, and 500μM ). Negative controls included media-only and vehicle control (i.e., 0.5% vol/vol DMSO in cell culture media) wells. Positive assay controls were consistent with previously published reports ([Grimm et al. 2018]) and included TAB ( 50μM ) as a cytotoxic control, and isoproterenol ( 0.1–10μM ), propranolol ( 0.1–5 μM ), cisapride ( 0.01–1μM ), and doxorubicin ( 0.1–5μM ) as chemicals associated with specific effects on beating and ion flux. Each test chemical was screened in triplicate for each concentration.
# Experiments started with the addition of 25μL of prewarmed 2× concentrated calcium dye reagent to sample wells containing 25μL maintenance media. Microplates were then acclimated for 2 h at 37°C. Following equilibration, cardiomyocyte sample wells were treated simultaneously by the addition of 12.5μL of prewarmed 5× chemical solution to iCell®-cardiomyocytes using the automated liquid handler in the FLIPR tetra (Molecular Devices). Treated cell cultures were incubated for either 90 min or 24 h. After the conclusion of the treatment period, the Ca^2+ flux was measured for 100 s at a frequency of 8 Hz using the integrated fluorescence plate reader in the FLIPR tetra (Molecular Devices) using an emission wavelength range of λemission=515–575 nm ( λexcitation=470–495 nm ). Additional instrument settings included exposure time per read of 0.05s, a gain of 2000, an excitation intensity of 30%, and an internal temperature of 37°C.
# Ca^2+ flux data were processed in R studio (version 1.0.136, with R version 3.3.2; R Development Core Team) as described elsewhere ([Blanchette et al. 2019]; [Burnett et al. 2019]). Calculated quantitative metrics included the means and coefficients of variation (CV) of the peak height, which can be indicative of cytotoxicity, inhibition, or stimulation of beating. Means of peak frequency, an indicator of positive or negative […], and CV of peak spacing, an indicator of irregular beating, were also derived from Ca^2+ flux traces. Finally, the mean ratio of the decay over rise time was calculated. Increases in the decay/rise time ratio are reflective of delayed repolarization and are a measure for QT prolongation. […]
# [1] = 1.5 h, 90min, read-out: cm.amp.avg.90min
# [2] = 1.5 h, 90min, read-out: cm.amp.cv.90min
# [3] = 1.5 h, 90min, read-out: cm.bpm.90min
# [4] = 1.5 h, 90min, read-out: cm.decay.rise.90min
# [5] = 1.5 h, 90min, read-out: cm.spacing.cv.90min
# [6] = 24 h, 24hrs, read-out: cm.amp.avg.24hrs
# [7] = 24 h, 24hrs, read-out: cm.amp.cv.24hrs
# [8] = 24 h, 24hrs, read-out: cm.bpm.24hrs
# [9] = 24 h, 24hrs, read-out: cm.decay.rise.24hrs
# [10] = 24 h, 24hrs, read-out: cm.spacing.cv.24hrs
smiles,measurement,setting,value
Clc1ccc(-c2cc(Cl)c(Cl)c(Cl)c2)cc1Cl [PCB126],activity at 0.01 µM,[1],100%
same,activity at 0.01 µM,[2],110%
same,activity at 0.01 µM,[3],107%
same,activity at 0.01 µM,[4],102%
same,activity at 0.01 µM,[5],135%
same,activity at 0.1 µM,[1],102%
same,activity at 0.1 µM,[2],139%
same,activity at 0.1 µM,[3],97.8%
same,activity at 0.1 µM,[4],99.8%
same,activity at 0.1 µM,[5],119%
same,activity at 1 µM,[1],102%
same,activity at 1 µM,[2],114%
same,activity at 1 µM,[3],105%
same,activity at 1 µM,[4],96%
same,activity at 1 µM,[5],115%
same,activity at 10 µM,[1],90.3%
same,activity at 10 µM,[2],363%
same,activity at 10 µM,[3],128%
same,activity at 10 µM,[4],83%
same,activity at 100 µM,[1],117%
same,activity at 100 µM,[2],120%
same,activity at 100 µM,[3],135%
same,activity at 100 µM,[4],86.2%
same,activity at 100 µM,[5],106%
same,activity at 0.01 µM,[6],73.3%
same,activity at 0.01 µM,[7],143%
same,activity at 0.01 µM,[8],100%
same,activity at 0.01 µM,[9],101%
same,activity at 0.01 µM,[10],122%
same,activity at 0.1 µM,[6],79.8%
same,activity at 0.1 µM,[7],120%
same,activity at 0.1 µM,[8],100%
same,activity at 0.1 µM,[9],109%
same,activity at 0.1 µM,[10],117%
same,activity at 1 µM,[6],72.2%
same,activity at 1 µM,[7],128%
same,activity at 1 µM,[8],104%
same,activity at 1 µM,[9],97.6%
same,activity at 1 µM,[10],113%
same,activity at 10 µM,[6],78.8%
same,activity at 10 µM,[7],38.8%
same,activity at 10 µM,[8],68.7%
same,activity at 10 µM,[9],50%
same,activity at 10 µM,[10],66.1%
same,activity at 100 µM,[6],20.9%
same,activity at 100 µM,[7],121%
same,activity at 100 µM,[8],70.6%
same,activity at 100 µM,[9],29.1%
same,activity at 100 µM,[10],81%
